According to US9790201B2, “Piperidine and azepine derivatives as prokineticin receptor modulators” (TAKEDA PHARMACEUTICAL COMPANY LIMITED, priority 2013, dated 2017):

Each compound was assayed against human PKR1 receptors (Homo sapiens (Human), UniProt Q8TCW9) (assay: PKR1 antagonist assay: block of PK1-mediated intracellular calcium release (FLIPR Tetra)). Details: RBL2H3 cells expressing human PKR1; stimulation with PK1 at EC80; calcium fluorescence.
Type: cell-based
Procedure: Prokineticin receptor 1 (PKR1) antagonists may be functionally assessed by measurement of change in intracellular calcium levels induced by Gq mediated increase in inositol triphosphate (IP3) levels. The ability of a compound to block the intracellular release of calcium mediated by PK1 in RBL2H3 cells expressing human PKR1 receptors is determined as a measure of the compound's antagonist activity in vitro.
Approximately 10,000 cells per assay well are seeded in normal culture medium in a 384 well plate (Corning). Twenty-four hours after seeding, the cells are loaded with a calcium sensitive fluorescent dye by replacing the culture medium with assay buffer (1× Hanks buffered saline, 25 mM HEPES, 0.1% w/v fatty acid free BSA (bovine serum albumin), pH 7.4) containing 1 mM probenecid and 1× Calcium 5 Reagent (Molecular Devices). Cells are incubated at 37° C. for 1 hour to allow for dye uptake.
To test for antagonist activity, test compounds at a final concentration range between 0.32 nM-10 μM (diluted in assay buffer) are added to the assay wells and allowed to incubate for 10 minutes prior to stimulation with PK1. After incubation with test compounds the assay plate is placed in a FLIPR Tetra (Molecular Devices) and PK1 (diluted in assay buffer) is added at the determined EC80 concentration (final). Ligand-dependent changes in intracellular calcium levels are determined by measuring changes in fluorescence of the dye at […] following excitation at 485 nm.

human PKR1 receptors, sequence (Q8TCW9 whole entry): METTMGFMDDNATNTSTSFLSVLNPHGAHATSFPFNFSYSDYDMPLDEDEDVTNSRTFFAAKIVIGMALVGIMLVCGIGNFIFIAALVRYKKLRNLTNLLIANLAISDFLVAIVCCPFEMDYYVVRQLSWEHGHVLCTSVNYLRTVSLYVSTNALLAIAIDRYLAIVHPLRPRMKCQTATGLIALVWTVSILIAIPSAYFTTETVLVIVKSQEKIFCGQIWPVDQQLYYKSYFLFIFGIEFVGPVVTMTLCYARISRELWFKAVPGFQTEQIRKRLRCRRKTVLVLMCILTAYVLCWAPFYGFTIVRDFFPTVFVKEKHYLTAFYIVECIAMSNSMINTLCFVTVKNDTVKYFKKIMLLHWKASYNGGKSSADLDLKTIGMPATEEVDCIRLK

Structure (SMILES) | IC50
Cc1ccc(C2CCCN(C(=O)c3ccnc(N(C)C)c3)C2)cc1 (single isomer, unassigned) [Example 50, N,N-Dimethyl-4-{[3-(4-methylphenyl)piperidin-1-yl]carbonyl}pyridin-2-amine] | 990 nM
Cc1ccc(C2CCCN(C(=O)c3ccnc(N(C)C)c3)C2)cc1 (single isomer, unassigned) [Example 51, N,N-Dimethyl-4-{[3-(4-methylphenyl)piperidin-1-yl]carbonyl}pyridin-2-amine] | 310 nM
CNc1cc(C(=O)N2CCC[C@@H](c3ccc(Cl)cc3C)C2)cnn1 (single isomer, unassigned) [Example 73] | 1180 nM
Cn1cc(C(=O)N2CCCC(c3ccc(Cl)cc3C(F)(F)F)C2)c(N)n1 (single isomer, unassigned) [Example 118, 4-({3-[4-Chloro-2-(trifluoromethyl)phenyl]piperidin-1-yl}carbonyl)-1-methyl-1H-pyrazol-3-amine] | > 10000 nM
Cn1cc(C(=O)N2CCCC(c3ccc(Cl)cc3C(F)(F)F)C2)c(N)n1 (single isomer, unassigned) [Example 119, 4-({3-[4-Chloro-2-(trifluoromethyl)phenyl]piperidin-1-yl}carbonyl)-1-methyl-1H-pyrazol-3-amine] | 330 nM
CN(C)c1cc(C(=O)N2CCCC(c3ccccc3F)C2)ccn1 (centres unmarked) [Example 1, 4-{[3-(2-Fluorophenyl)piperidin-1-yl]carbonyl}-N,N-dimethylpyridin-2-amine] | 1820 nM
CN(C)c1cc(C(=O)N2CCCC(c3ccc(Cl)cc3Cl)C2)ccn1 (centres unmarked) [Example 2, 4-{[3-(2,4-Dichlorophenyl)piperidin-1-yl]carbonyl}-N,N-dimethylpyridin-2-amine] | 190 nM
O=C(c1ccnc(C2CC2)c1)N1CCCC(c2ccc(Cl)cc2)C1 (centres unmarked) [Example 3, 4-{[3-(4-Chlorophenyl)piperidin-1-yl]carbonyl}-2-cyclopropylpyridine] | 1740 nM
CCc1cc(C(=O)N2CCCC(c3ccc(Cl)cc3C)C2)ccn1 (centres unmarked) [Example 4, 4-{[3-(4-Chloro-2-methylphenyl)piperidin-1-yl]carbonyl}-2-ethylpyridine] | 70 nM
Cc1cc(C(=O)N2CCCC(c3ccc(Cl)cc3C)C2)ccn1 (centres unmarked) [Example 5, 4-{[3-(4-Chloro-2-methylphenyl)piperidin-1-yl]carbonyl}-2-methylpyridine] | 450 nM
CCc1cc(C(=O)N2CCCC(c3ccc(Cl)cc3C(F)(F)F)C2)ccn1 (centres unmarked) [Example 6, 4-({3-[4-Chloro-2-(trifluoromethyl)phenyl]piperidin-1-yl}carbonyl)-2-ethylpyridine] | 280 nM
CN(C)c1cc(C(=O)N2CCCC(c3ccc(Cl)cc3C(F)(F)F)C2)ccn1 (centres unmarked) [Example 7, 4-({3-[4-Chloro-2-(trifluoromethyl)phenyl]piperidin-1-yl}carbonyl)-N,N-dimethylpyridin-2-amine] | 100 nM
CC(C)Nc1cc(C(=O)N2CCCC(c3ccc(Cl)cc3)C2)ccn1 (centres unmarked) [Example 8, 4-{[3-(4-Chlorophenyl)piperidin-1-yl]carbonyl}-N-(propan-2-yl)pyridin-2-amine] | 3270 nM
COc1cc(C(=O)N2CCCC(c3ccc(Cl)cc3C(F)(F)F)C2)ccn1 (centres unmarked) [Example 9, 4-({3-[4-Chloro-2-(trifluoromethyl)phenyl]piperidin-1-yl}carbonyl)-2-methoxypyridine] | 1370 nM
Cc1cc(C(=O)N2CCCC(c3ccc(Cl)cc3C(F)(F)F)C2)ccn1 (centres unmarked) [Example 10, 4-({3-[4-Chloro-2-(trifluoromethyl)phenyl]piperidin-1-yl}carbonyl)-2-methylpyridine] | 1170 nM
CNc1cc(C(=O)N2CCCC(c3ccc(C)cc3)C2)ccn1 (centres unmarked) [Example 11, N-Methyl-4-{[3-(4-methylphenyl)piperidin-1-yl]carbonyl}pyridin-2-amine] | 290 nM

Structure (SMILES) | IC50
Cc1ccc(C2CCCN(C(=O)c3ccnc(C)c3)C2)cc1 (centres unmarked) [Example 12, 2-Methyl-4-{[3-(4-methylphenyl)piperidin-1-yl]carbonyl}pyridine] | 2800 nM
Cc1cccc(C2CCCN(C(=O)c3ccnc(N(C)C)c3)C2)c1 (centres unmarked) [Example 13, N,N-Dimethyl-4-{[3-(3-methylphenyl)piperidin-1-yl]carbonyl}pyridin-2-amine] | 1920 nM
Cc1ccccc1C1CCCN(C(=O)c2ccnc(N(C)C)c2)C1 (centres unmarked) [Example 14, N,N-Dimethyl-4-{[3-(2-methylphenyl)piperidin-1-yl]carbonyl}pyridin-2-amine] | 190 nM
CN(C)c1cc(C(=O)N2CCCC(c3ccccc3)C2)ccn1 (centres unmarked) [Example 15, N,N-Dimethyl-4-[(3-phenylpiperidin-1-yl)carbonyl]pyridin-2-amine] | 1140 nM
CN(C)c1cc(C(=O)N2CCCC(c3ccc(Cl)cc3)C2)ccn1 (centres unmarked) [Example 16, 4-{[3-(4-Chlorophenyl)piperidin-1-yl]carbonyl}-N,N-dimethylpyridin-2-amine] | 270 nM
CN(C)c1cc(C(=O)N2CCC[C@@H](c3ccc(Cl)cc3)C2)ccn1 [Example 17, 4-{[(3S)-3-(4-Chlorophenyl)piperidin-1-yl]carbonyl}-N,N-dimethylpyridin-2-amine] | 840 nM
CN(C)c1cc(C(=O)N2CCC[C@H](c3ccc(Cl)cc3)C2)ccn1 [Example 18, 4-{[(3R)-3-(4-Chlorophenyl)piperidin-1-yl]carbonyl}-N,N-dimethylpyridin-2-amine] | 180 nM
CN(C)c1cc(C(=O)N2CCCC(c3ccc(F)cc3)C2)ccn1 (centres unmarked) [Example 19, 4-{[3-(4-Fluorophenyl)piperidin-1-yl]carbonyl}-N,N-dimethylpyridin-2-amine] | 1220 nM
CCc1cc(C(=O)N2CCCC(c3ccc(C)cc3)C2)ccn1 (centres unmarked) [Example 20, 2-Ethyl-4-{[3-(4-methylphenyl)piperidin-1-yl]carbonyl}pyridine] | 1210 nM
Cc1ccc(C2CCCN(C(=O)c3ccnc(N4CCC4)c3)C2)cc1 (centres unmarked) [Example 21, 2-(Azetidin-1-yl)-4-{[3-(4-methylphenyl)piperidin-1-yl]carbonyl}pyridine] | 1200 nM
O=C(c1ccnc(N2CCC2)c1)N1CCCC(c2ccc(Cl)cc2)C1 (centres unmarked) [Example 22, 2-(Azetidin-1-yl)-4-{[3-(4-chlorophenyl)piperidin-1-yl]carbonyl}pyridine] | 1040 nM
Cc1ccccc1C1CCCN(C(=O)c2ccnc(N3CCC3)c2)C1 (centres unmarked) [Example 23, 2-(Azetidin-1-yl)-4-{[3-(2-methylphenyl)piperidin-1-yl]carbonyl}pyridine] | 960 nM
Cc1cc(Cl)ccc1C1CCCN(C(=O)c2ccnc(N(C)C)c2)C1 (centres unmarked) [Example 24, 4-{[3-(4-Chloro-2-methylphenyl)piperidin-1-yl]carbonyl}-N,N-dimethylpyridin-2-amine] | 30 nM
CN(C)c1cc(C(=O)N2CCCC(c3ccc(Cl)cc3F)C2)ccn1 (centres unmarked) [Example 25, 4-{[3-(4-Chloro-2-fluorophenyl)piperidin-1-yl]carbonyl}-N,N-dimethylpyridin-2-amine] | 530 nM
CN(C)c1cc(C(=O)N2CCCC(c3ccc(F)cc3Cl)C2)ccn1 (centres unmarked) [Example 26, 4-{[3-(2-Chloro-4-fluorophenyl)piperidin-1-yl]carbonyl}-N,N-dimethylpyridin-2-amine] | 470 nM
CNc1cc(C(=O)N2CCCC(c3ccc(Cl)cc3)C2)ccn1 (centres unmarked) [Example 27, 4-{[3-(4-Chlorophenyl)piperidin-1-yl]carbonyl}-N-methylpyridin-2-amine] | 130 nM
